Tests used:
[1] = target: Mitogen-activated protein kinase 1 (Homo sapiens) (UniProt P28482); assay: MAPK2ERK2 DUNDEE kinase screen (BI); details: Mus musculus; Compound concentration 10.0 uM
[2] = target: AMPK alpha2/beta2/gamma1 (Homo sapiens) (UniProt P54646+O43741+P54619); assay: AMPK (A2/B2/G1) Invitrogen Lab (UK) kinase screen (BI); assay type: protein-complex assay; details: Compound concentration 1.0 uM
[3] = target: Muscarinic acetylcholine receptor M1 (Homo sapiens) (UniProt P11229); details: Compound concentration 10.0 uM
[4] = target: Inhibitor of nuclear factor kappa-B kinase subunit epsilon (Homo sapiens) (UniProt Q14164)
[5] = target: Casein kinase I isoform epsilon (Homo sapiens) (UniProt P49674); assay: CSNK1E Invitrogen Lab (UK) kinase screen (BI); details: Compound concentration 1.0 uM
[6] = target: LIM domain kinase 1 (Homo sapiens) (UniProt P53667); details: Compound concentration 1.0 uM
[7] = target: MAP kinase-activated protein kinase 5 (Homo sapiens) (UniProt Q8IW41); details: Compound concentration 1.0 uM
[8] = target: cAMP-dependent protein kinase catalytic subunit PRKX (Homo sapiens) (UniProt P51817); details: Compound concentration 1.0 uM
[9] = target: Aurora kinase C (Homo sapiens) (UniProt Q9UQB9); details: Compound concentration 1.0 uM
[10] = target: 3-hydroxy-3-methylglutaryl-coenzyme A reductase (Rattus norvegicus) (UniProt P51639); assay: HMGCOARED Eurofins SafetyScreen44 (BI); details: Compound concentration 10.0 uM
[11] = target: Mitogen-activated protein kinase kinase kinase kinase 2 (Homo sapiens) (UniProt Q12851); details: Compound concentration 1.0 uM
[12] = target: Dual specificity tyrosine-phosphorylation-regulated kinase 3 (Homo sapiens) (UniProt O43781); details: Compound concentration 1.0 uM
[13] = target: Thromboxane-A synthase (Homo sapiens) (UniProt P24557); assay: THRO SYN(HU) Eurofins SafetyScreen44 (BI); details: Compound concentration 10.0 uM
[14] = target: Mitogen-activated protein kinase 10 (Homo sapiens) (UniProt P53779); details: Compound concentration 1.0 uM
[15] = target: T1, Serine/threonine-protein kinase Chk1 (Homo sapiens) (UniProt O14757); assay: CHK1 DUNDEE kinase screen (BI); details: Compound concentration 10.0 uM
T1 sequence (whole entry): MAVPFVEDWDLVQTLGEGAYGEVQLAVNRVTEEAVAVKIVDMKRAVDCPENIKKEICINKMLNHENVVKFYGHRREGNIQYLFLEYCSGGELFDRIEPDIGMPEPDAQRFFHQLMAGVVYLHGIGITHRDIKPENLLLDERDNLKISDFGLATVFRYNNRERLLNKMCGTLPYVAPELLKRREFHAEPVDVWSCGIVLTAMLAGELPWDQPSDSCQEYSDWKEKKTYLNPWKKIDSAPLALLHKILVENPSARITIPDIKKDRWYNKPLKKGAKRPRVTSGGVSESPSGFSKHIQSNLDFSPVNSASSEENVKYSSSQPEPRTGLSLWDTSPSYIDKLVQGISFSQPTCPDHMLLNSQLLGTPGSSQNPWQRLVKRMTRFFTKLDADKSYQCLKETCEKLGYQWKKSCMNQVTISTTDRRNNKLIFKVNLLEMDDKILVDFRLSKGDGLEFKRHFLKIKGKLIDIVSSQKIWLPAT

[16] = target: Maternal embryonic leucine zipper kinase (Homo sapiens) (UniProt Q14680); assay: MELK Invitrogen Lab (UK) kinase screen (BI); details: Compound concentration 1.0 uM
[17] = target: TGF-beta receptor type-2 (Homo sapiens) (UniProt P37173); details: Compound concentration 1.0 uM
[18] = target: Death-associated protein kinase 1 (Homo sapiens) (UniProt P53355); details: Compound concentration 1.0 uM
[19] = target: Calcium/calmodulin-dependent protein kinase type 1 (Homo sapiens) (UniProt Q14012); assay: CAMK1 DUNDEE kinase screen (BI); details: Compound concentration 10.0 uM
[20] = target: Dual specificity mitogen-activated protein kinase kinase 4 (Homo sapiens) (UniProt P45985); assay: MAP2K4 Invitrogen Lab (UK) kinase screen (BI); details: Compound concentration 1.0 uM
[21] = target: Phosphatidylinositol 4-kinase beta (Homo sapiens) (UniProt Q9UBF8); details: Compound concentration 1.0 uM
[22] = target: Ephrin type-B receptor 3 (Homo sapiens) (UniProt P54753); details: Compound concentration 1.0 uM
[23] = target: Cyclin-dependent kinase 5 (Homo sapiens) (UniProt Q00535); assay: CDK5 (INACTIVE) Invitrogen Lab (UK) kinase screen (BI); details: Compound concentration 1.0 uM
Renin (Homo sapiens) = Renin (Homo sapiens) (UniProt P00797); details: Compound concentration 10.0 uM
[24] = target: Mitogen-activated protein kinase 11 (Homo sapiens) (UniProt Q15759); details: Compound concentration 1.0 uM
[25] = target: Serine/threonine-protein kinase tousled-like 1 (Homo sapiens) (UniProt Q9UKI8); details: Compound concentration 1.0 uM
[26] = target: Tyrosine-protein kinase Lyn (Homo sapiens) (UniProt P07948); details: Compound concentration 1.0 uM
[27] = target: Tyrosine-protein kinase Mer (Homo sapiens) (UniProt Q12866); details: Compound concentration 1.0 uM
[28] = tested on: PI3-kinase p110-alpha/p85-alpha (Homo sapiens), P27986+P42336 [E545K]; details: Compound concentration 1.0 uM
[29] = target: Beta-2 adrenergic receptor (Homo sapiens) (UniProt P07550); details: Compound concentration 10.0 uM
[30] = target: Mitogen-activated protein kinase 7 (Homo sapiens) (UniProt Q13164); details: Compound concentration 1.0 uM
[31] = target: Dual specificity mitogen-activated protein kinase kinase 1 (Homo sapiens) (UniProt Q02750); assay: MAP2K1 Invitrogen Lab (UK) kinase screen (BI)
[32] = target: Activin receptor type-1-like (Homo sapiens) (UniProt P37023); assay: ACVRL1 (ALK1) Invitrogen Lab (UK) kinase screen (BI); details: Compound concentration 1.0 uM
[33] = target: CDK8/Cyclin C (Homo sapiens) (UniProt P49336+P24863); details: Compound concentration 1.0 uM
[34] = target: Dual specificity protein kinase CLK1 (Homo sapiens) (UniProt P49759); details: Compound concentration 1.0 uM
[35] = target: Mitogen-activated protein kinase 14 (Homo sapiens) (UniProt Q16539); details: Compound concentration 1.0 uM
[36] = target: Ribosomal protein S6 kinase alpha-3 (Homo sapiens) (UniProt P51812)
Sequence of Ribosomal protein S6 kinase alpha-3 (Homo sapiens) (P51812 whole entry): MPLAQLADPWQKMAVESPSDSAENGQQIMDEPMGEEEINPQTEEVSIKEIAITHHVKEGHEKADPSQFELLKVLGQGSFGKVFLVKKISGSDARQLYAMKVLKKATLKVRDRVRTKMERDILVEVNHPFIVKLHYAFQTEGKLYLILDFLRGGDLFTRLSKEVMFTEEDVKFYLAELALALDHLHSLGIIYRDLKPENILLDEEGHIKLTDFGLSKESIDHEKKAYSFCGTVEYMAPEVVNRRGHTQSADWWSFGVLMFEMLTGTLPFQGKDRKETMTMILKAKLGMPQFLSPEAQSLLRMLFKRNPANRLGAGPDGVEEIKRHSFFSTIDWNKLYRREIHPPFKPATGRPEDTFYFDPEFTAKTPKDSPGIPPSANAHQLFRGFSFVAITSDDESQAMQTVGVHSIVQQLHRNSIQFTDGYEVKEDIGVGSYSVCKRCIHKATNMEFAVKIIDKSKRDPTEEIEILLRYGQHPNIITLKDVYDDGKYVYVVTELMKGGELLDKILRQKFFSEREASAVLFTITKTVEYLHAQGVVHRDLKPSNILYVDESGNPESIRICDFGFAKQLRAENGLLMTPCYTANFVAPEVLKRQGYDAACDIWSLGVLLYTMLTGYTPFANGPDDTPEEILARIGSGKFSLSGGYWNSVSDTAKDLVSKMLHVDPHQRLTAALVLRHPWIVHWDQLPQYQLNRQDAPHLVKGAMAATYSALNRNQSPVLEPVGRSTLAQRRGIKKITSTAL

Sequence of Dual specificity mitogen-activated protein kinase kinase 1 (Homo sapiens) (Q02750 whole entry): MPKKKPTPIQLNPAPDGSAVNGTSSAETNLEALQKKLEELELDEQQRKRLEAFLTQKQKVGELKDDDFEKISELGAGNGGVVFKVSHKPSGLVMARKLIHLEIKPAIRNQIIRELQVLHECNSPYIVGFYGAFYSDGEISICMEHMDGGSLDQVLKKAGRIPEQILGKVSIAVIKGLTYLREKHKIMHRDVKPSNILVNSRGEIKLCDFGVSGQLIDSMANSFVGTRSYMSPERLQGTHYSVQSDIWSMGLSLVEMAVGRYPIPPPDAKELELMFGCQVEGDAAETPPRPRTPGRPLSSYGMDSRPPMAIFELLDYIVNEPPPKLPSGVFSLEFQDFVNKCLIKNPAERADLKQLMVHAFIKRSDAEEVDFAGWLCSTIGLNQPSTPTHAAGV
Sequence of Inhibitor of nuclear factor kappa-B kinase subunit epsilon (Homo sapiens) (Q14164 whole entry, canonical isoform): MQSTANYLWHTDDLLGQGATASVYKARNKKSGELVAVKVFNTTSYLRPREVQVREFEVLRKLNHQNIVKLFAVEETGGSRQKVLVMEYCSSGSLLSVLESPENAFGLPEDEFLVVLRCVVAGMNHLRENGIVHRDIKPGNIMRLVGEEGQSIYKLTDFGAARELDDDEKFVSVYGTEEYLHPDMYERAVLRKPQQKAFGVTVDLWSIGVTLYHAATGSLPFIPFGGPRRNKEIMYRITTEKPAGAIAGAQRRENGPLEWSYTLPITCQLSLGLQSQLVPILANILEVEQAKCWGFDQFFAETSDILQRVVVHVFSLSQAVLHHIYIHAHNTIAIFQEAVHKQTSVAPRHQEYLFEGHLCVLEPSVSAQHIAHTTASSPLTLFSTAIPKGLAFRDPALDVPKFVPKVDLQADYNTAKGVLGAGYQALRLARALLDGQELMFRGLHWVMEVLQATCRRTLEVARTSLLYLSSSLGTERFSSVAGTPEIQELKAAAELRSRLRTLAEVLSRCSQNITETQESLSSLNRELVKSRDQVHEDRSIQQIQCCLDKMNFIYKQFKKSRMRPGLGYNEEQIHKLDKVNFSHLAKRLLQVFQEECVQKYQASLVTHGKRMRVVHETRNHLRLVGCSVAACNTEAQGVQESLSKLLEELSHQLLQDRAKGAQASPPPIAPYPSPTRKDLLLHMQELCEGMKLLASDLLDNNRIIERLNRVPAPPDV
Sequence of TGF-beta receptor type-2 (Homo sapiens) (P37173 whole entry): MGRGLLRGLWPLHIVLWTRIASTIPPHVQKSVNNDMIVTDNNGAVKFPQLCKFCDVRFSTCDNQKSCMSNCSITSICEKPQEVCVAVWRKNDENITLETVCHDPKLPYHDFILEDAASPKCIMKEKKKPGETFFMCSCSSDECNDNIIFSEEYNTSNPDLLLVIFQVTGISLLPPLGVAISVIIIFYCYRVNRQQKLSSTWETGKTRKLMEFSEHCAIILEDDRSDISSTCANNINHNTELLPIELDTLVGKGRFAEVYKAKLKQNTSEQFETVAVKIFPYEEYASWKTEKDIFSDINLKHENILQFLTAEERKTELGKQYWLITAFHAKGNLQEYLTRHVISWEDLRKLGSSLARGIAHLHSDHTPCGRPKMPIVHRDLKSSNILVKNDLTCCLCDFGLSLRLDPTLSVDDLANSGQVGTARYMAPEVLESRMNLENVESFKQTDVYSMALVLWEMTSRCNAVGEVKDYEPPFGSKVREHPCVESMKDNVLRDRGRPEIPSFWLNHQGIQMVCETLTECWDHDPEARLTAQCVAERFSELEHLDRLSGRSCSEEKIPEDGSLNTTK
Sequence of Thromboxane-A synthase (Homo sapiens) (P24557 whole entry): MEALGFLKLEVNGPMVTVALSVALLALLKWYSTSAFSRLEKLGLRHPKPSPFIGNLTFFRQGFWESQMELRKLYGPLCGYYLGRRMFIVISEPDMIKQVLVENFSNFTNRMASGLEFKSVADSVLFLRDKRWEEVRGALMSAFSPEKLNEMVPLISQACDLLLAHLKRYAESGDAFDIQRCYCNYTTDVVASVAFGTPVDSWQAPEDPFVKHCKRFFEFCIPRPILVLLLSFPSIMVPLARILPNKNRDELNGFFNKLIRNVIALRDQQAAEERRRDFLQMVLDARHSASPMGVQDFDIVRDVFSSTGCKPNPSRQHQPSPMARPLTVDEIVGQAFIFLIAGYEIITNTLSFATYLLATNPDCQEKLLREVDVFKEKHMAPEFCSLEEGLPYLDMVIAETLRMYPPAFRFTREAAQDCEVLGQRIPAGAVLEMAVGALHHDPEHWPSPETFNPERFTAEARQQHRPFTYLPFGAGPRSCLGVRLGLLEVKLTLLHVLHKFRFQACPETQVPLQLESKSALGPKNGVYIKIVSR
Sequence of 3-hydroxy-3-methylglutaryl-coenzyme A reductase (Rattus norvegicus) (P51639 whole entry): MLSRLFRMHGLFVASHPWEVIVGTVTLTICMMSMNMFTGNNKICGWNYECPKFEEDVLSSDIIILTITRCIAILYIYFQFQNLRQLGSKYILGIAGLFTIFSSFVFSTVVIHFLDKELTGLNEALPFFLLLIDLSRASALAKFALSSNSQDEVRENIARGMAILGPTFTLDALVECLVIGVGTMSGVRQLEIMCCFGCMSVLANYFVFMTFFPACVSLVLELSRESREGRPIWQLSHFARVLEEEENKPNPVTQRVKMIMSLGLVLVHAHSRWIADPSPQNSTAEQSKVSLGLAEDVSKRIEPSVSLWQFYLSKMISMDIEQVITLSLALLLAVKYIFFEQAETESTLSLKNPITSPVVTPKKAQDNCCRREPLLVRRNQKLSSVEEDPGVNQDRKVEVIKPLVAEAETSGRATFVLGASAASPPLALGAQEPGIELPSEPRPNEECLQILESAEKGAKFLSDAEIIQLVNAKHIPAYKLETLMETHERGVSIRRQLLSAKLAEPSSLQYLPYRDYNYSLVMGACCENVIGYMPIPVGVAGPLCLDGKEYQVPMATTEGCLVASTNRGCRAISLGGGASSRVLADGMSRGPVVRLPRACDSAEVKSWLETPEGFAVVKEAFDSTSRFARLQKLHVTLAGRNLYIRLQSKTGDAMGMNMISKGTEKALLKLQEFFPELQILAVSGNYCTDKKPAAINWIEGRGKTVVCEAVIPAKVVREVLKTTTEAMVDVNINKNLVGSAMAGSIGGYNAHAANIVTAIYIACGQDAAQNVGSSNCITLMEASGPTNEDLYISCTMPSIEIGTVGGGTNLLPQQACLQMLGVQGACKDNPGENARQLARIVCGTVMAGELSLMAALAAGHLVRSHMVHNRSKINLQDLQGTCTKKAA
Sequence of MAP kinase-activated protein kinase 5 (Homo sapiens) (Q8IW41 whole entry): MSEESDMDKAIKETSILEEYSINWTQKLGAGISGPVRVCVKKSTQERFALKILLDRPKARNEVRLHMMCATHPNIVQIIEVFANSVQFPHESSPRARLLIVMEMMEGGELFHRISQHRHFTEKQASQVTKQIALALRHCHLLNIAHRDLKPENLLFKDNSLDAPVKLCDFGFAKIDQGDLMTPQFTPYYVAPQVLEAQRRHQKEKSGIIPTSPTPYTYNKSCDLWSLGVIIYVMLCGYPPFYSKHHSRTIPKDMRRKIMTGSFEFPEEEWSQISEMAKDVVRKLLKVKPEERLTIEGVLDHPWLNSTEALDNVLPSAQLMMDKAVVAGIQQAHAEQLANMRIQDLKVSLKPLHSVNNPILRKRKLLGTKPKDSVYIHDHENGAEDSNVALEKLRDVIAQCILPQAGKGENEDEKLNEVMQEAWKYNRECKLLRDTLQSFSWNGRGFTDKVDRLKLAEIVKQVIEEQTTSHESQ
Sequence of Muscarinic acetylcholine receptor M1 (Homo sapiens) (P11229 whole entry): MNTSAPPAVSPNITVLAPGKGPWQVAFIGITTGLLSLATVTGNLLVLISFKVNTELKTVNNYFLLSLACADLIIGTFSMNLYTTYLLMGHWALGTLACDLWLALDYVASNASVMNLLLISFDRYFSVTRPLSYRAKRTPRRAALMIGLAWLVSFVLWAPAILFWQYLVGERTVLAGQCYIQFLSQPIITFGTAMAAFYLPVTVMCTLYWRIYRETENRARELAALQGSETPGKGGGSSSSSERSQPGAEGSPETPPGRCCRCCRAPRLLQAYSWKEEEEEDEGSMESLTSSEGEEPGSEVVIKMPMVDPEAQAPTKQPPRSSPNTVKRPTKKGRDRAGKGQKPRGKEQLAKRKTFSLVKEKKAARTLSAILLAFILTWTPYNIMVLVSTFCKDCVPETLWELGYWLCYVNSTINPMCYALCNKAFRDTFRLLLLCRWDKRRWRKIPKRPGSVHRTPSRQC

CCC(F)(F)c1cc(N2CCC(S(C)(=O)=O)CC2)nc2sc(C(N)=O)c(N)c12 [BI-605906]
inactive: residual activity [1] 90.1% | residual activity [2] 88% | inhibition [3] 8.33% | residual activity ([4]; Compound concentration 1.0 uM) 98% | residual activity ([4]; Compound concentration 10.0 uM) 98% | residual activity [5] 75% | residual activity [6] 97% | residual activity [7] 92% | residual activity [8] 96% | residual activity [9] 95% | residual activity [10] 85% | residual activity [11] 99% | residual activity [12] 92% | residual activity [13] 86% | residual activity [14] 101% | residual activity [15] 90.2% | residual activity [16] 103% | residual activity [17] 87% | residual activity [18] 100% | residual activity [19] 78.4% | residual activity [20] 79% | residual activity [21] 92% | residual activity [22] 99% | residual activity [23] 83% | residual activity (Renin (Homo sapiens)) 100% | residual activity [24] 98% | residual activity [25] 91% | residual activity [26] 82% | residual activity [27] 93% | residual activity [28] 100% | inhibition [29] 8.96% | residual activity [30] 98% | residual activity ([31]; Compound concentration 1.0 uM) 76% | residual activity ([31]; Compound concentration 10.0 uM) 80% | residual activity [32] 64% | residual activity [33] 82% | residual activity [34] 92% | residual activity [35] 89% | residual activity ([36]; Compound concentration 1.0 uM) 94% | residual activity ([36]; Compound concentration 10.0 uM) 95%

Source: ChEMBL document CHEMBL4800722, “Data for DCP probe BI 605906” (2021)
